Experimental data reported in ChEMBL document CHEMBL6096644, “Synthesis and structure-affinity relationships of spirocyclic σ1 receptor ligands with tetrahydropyran scaffold” (Eur J Med Chem, 2025).

Assays:
[1] = physchem; settings: n-octanol/MOPS aqueous buffer, pH 7.4
Description: Distribution coefficient, logD of compound in n-Octanol/MOPS aqueous buffer at pH 7.4 by shake-flask method based mass spectrometry analysis

[2] = in vitro; settings: human, human serum
Description: Plasma protein binding in human serum by HPAC analysis

[3] = in vitro; settings: mouse, liver microsomes
Description: Metabolic stability in mouse liver microsomes assessed as parent compound remaining measured after 90 mins in presence of NADPH/H+ by HPLC analysis

Row | logD [1] | fraction unbound [2] | remaining at 1.5 h [3] | SMILES
1 | 2.34 | – | – | c1cc2c(cc1C1CCOC3(CCN(CC4CCCC4)CC3)C1)CCO2 (stereo not given)
2 | 3.33 | – | – | Oc1cccc(CN2CCC3(CC2)CC(CCc2ccccc2)CCO3)c1 (stereo not given)
3 | 2.42 | 0.15 | 74% | O=c1oc2ccccc2n1C1CCOC2(CCN(Cc3ccccc3)CC2)C1 (stereo not given)
